Measurements reported in patent US20250101061A1, “UPREGULATION OF FERRITIN HEAVY CHAIN 1 EXPRESSION” (HBC Immunology Inc., priority 2022, published 2025).
“And” between values parts separate entries of the source, which are not always exact repeats. Identical values can stand only once.

How the values were obtained:
FTH1 = FTH1 gene expression in human skeletal muscle cells (HSkMC) by qRT-PCR; type: cell-based; conditions: for FTH1 Fold Change, Average / FTH1 Fold Change (individual runs): SPH 100 μM or synthetic oligopeptide 10 μM, about 12 hours; for FTH1 Fold Change (individual runs): triplicate runs; for FTH1 Fold Change at 0.625 μM / FTH1 Fold Change at 1.25 μM / FTH1 Fold Change at 2.5 μM / FTH1 Fold Change at 5 μM / FTH1 Fold Change at 10 μM: average of triplicate (SD ≤ 0.3)
Description: A cell line derived from human skeletal muscle was selected to assess the effect of SPH and oligopeptides on gene expression. HSkMC (PCS-950-010) obtained from ATCC (Manassas, VA) were propagated in Mesenchymal Stem Cell Basal Medium (ATCC) reduced serum medium supplemented with Primary Skeletal Cell Muscle Growth Kit (ATCC) that contains L-Glutamine (10 mM), Dexamethasone ([…]), rh epidermal growth factor (5 ng/ml), rh FGF-b (5 ng/ml), rh Insulin (25 μg/mL), and fetal bovine serum (4%), on 100 mm cell culture dishes. For this assay, the HSkMC cells were seeded in 24 well plates at a cell density of 1×10^4 cells/cm^2 and maintained at 37° C. in a humidified 5% CO2 atmosphere. […]
Total RNA was extracted using the UPzol reagent for the cell pellets, followed by a DNAse treatment (DNAse TURBO), using the manufacturer's protocols. Complementary DNA (cDNA) was synthesized with the High Capacity cDNA Reverse Transcription Kit (Applied Biosystems) using random hexamers. Gene expression levels were measured by qRT-PCR.
1 μl of cDNA corresponding to 50 ng of reverse transcribed RNA was amplified by Qpcr (QuantStudio™ 6 Flex Real-Time PCR System), using the TaqMan™ Universal PCR Master Mix (Catalog No. 4304437) and a TaqMan™ assay (Roche Molecular Systems, Inc., Pleasanton, CA).
FTH1 gene expression was estimated relative to expression of the housekeeping gene, beta-actin (ACTB), following the standard formula: […]
2-ΔCt. TaqMan™ probe IDs used were: (i) FTH1, Hs01694011_s1; and (ii) ACTB, Hs01060665_g1. All experiments were run in triplicate.

[1] = test system: Immortalized human astrocytes (P10251-IM); test: Protection of human astrocytes from hemin-induced injury (LDH release assay); type: cell-based; conditions: 24 hr pre-treatment: SPH 160 μM, oligopeptide 10 μM, collagen control 160 μM; then 30 μM hemin 6 hrs; scaled to 0.1% Triton X-100 lysis
Description: Immortalized human astrocytes (P10251-IM) were obtained from Innoprot, Spain and prepared under conditions recommended by the supplier. At 90% confluency, the P10251-IM cells were rinsed with 8 ml of DPBS and 2 ml of the T/E Solution (prepared as per Innoprot procedure), then added into an […] and gently rocked so that the P10251-IM cells would be completely covered. The flask was subsequently incubated at 37° C. for 2 minutes. Then 5 ml of fetal bovine serum (FBS) and the T/E solution from the flask were added into a 50 ml conical centrifuge tube. The flask was incubated for an additional 2 minutes, and the P10251-IM cells dislodged from the surface by gentle tapping. The P10251-IM cells were then transferred to the 50 ml conical centrifuge tube with 5 ml of TNS solution. The tube was centrifuged at 1000 rpm for 5 minutes. Then the P10251-IM cells were resuspended in the culture medium, counted, and plated in a poly-L-lysine-coated culture plate at 1×10^4 cell density. Cells were tested after they were incubated for 21 days in vitro.
Confluent P10251-IM cell cultures were washed and then pre-treated with medium alone, or medium supplemented with SPH (160 μM) or an oligopeptide (10 μM) for 24 hr at 37° C. Commercial collagen peptide (Vital Protein) at 160 μM concentration and sterile water were used as negative controls. The P10251-IM cells were subsequently treated with 30 μM hemin in serum-free medium consisting of MEM with 10 mM glucose (MEM10) for 6 hrs.
P10251-IM astrocyte cultures that were […] with 30 μM hemin sustained widespread cell injury. Cell viability was quantified using the lactate dehydrogenase (LDH) release assay as previously described (Chen and Regan, Curr Neurovasc Res, 2:189-196, 2005). Briefly, quantification of the protective effects of SPH and oligopeptides were assessed by determining the mean percentage LDH released, scaled to the complete lysis control culture which was treated with 0.1% Triton X-100 (considered to release 100% of culture LDH).

Row | Substance | FTH1 Fold Change, Average (FTH1) [fold] | FTH1 Fold Change (individual runs) (FTH1) | FTH1 Fold Change at 0.625 μM (FTH1) [fold] | FTH1 Fold Change at 1.25 μM (FTH1) [fold] | FTH1 Fold Change at 2.5 μM (FTH1) [fold] | FTH1 Fold Change at 5 μM (FTH1) [fold] | FTH1 Fold Change at 10 μM (FTH1) [fold] | % LDH Release (individual runs) [1] | % LDH Release, Average [1] [%]
1 | REESGE [FT-001] | 1.7 | 1.6 fold and 1.8 fold (2×) | – | – | – | – | – | – | –
2 | LDEESGEP [FT-005] | 1.8 | 1.7 fold and 1.8 fold (2×) | – | – | – | – | – | – | –
3 | KPREESGE [FT-004] | 2.1 | 2.1 fold and 2.2 fold and 1.9 fold | 1.1 | 1.1 | 1.1 | 1.3 | 2.1 | – | –
4 | Triton X-100 [0.1% Triton X-100, reference compound] | – | – | – | – | – | – | – | 100% (2×) and 99% | 100
5 | REESGEP [FT-002] | 2.2 | 2.1 fold and 2.0 fold and 2.5 fold | 1.0 | 1.0 | 1.1 | 1.4 | 2.2 | – | –
6 | KEEDEESGE [FT-003] | 1.1 | 1.1 fold and 1.0 fold and 1.3 fold | – | – | – | – | – | – | –
